This note sets out measurements from patent publication US11827628B2, “Compositions and methods for inhibition of the JAK pathway” (Rigel Pharmaceuticals, Inc., priority 2005, dated 2023).

Like-named read-outs stand apart in the source and are kept apart here.

One assay relates to Primary human T-cells. Briefly: Primary Human T-Cell Proliferation Assay Stimulated with IL-2 (CellTiter-Glo). In kind it is cell-based. Conditions: read-out: IC50, Example 42. In a few lines:
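Peripheral blood T-cells pre-activated with anti-CD3/anti-CD28 and IL-2 were washed free of IL-2, then cultured with compound plus IL-2 for 72 hours at 37° C, duplicate wells. Viability read as ATP by CellTiter-Glo luminescence; IC50 reported.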

Assay [1] deals with up-regulation of ICAM-1 (CD54) by IFNγ in A549 lung epithelial cells. The experiment in a line: A549 Epithelial Line Stimulated with IFNγ (ICAM-1 surface expression, FACS). Format: cell-based, human. The conditions noted are these: ICAM-1 expression by FACS, read-out: IC50, Example 43. In a few lines: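 A549 cells pre-incubated 1 h with compound (30 μM to 14 nM, 5% FBS, 0.3% DMSO), then stimulated with IFNγ (75 ng/mL) for 24 h. Surface ICAM-1 stained with APC anti-CD54 and read by flow cytometry; geometric mean of live-gated events plotted against concentration for EC50.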

The mark [2] stands for this setting: Homo sapiens, T-cell, primary human T-cell proliferation stimulated with IL-2.
Where [3] appears, read: Homo sapiens, A549, A549 epithelial line stimulated with IFNγ.

Take `COc1ccc(CN2C(=O)C(C)Oc3ccc(Nc4nc(Nc5ccc(S(N)(=O)=O)cc5)ncc4F)cc32)cc1` (racemic) [Compound V-4, Racemic N2-(4-Aminosulphonylphenyl)-5-fluoro-N4-[2-methyl-3-oxo-4-(4-methoxybenzyl)-benz[1,4]oxazin-6-yl]-2,4-pyrimidinediamine]: the IC50 worked out at 1540 nM with Primary human T-cells (primary human T-cells stimulated with IL-2, proliferation) and 9240 nM in assay [1] (A549 cells stimulated with IFNγ).
As to `COc1cc(Nc2nc(Nc3ccc(S(N)(=O)=O)cc3)ncc2F)cc(OCC#N)c1OC` [Compound I-1, N2-(4-Aminosulphonylphenyl)-N4-(3-cyanomethoxy-4,5-dimethoxyphenyl)-5-fluoro-2,4-pyrimidinediamine], the values for the IC50 (in the assay on Primary human T-cells (setting [2]); in assay [1] (setting [3])) were 9890 nM and 18500 nM, respectively.
In the same order, the values of `COc1cc(Nc2nc(Nc3ccc(S(N)(=O)=O)cc3)ncc2F)ccc1OCC#N` [Compound I-45, N2-(4-Aminosulfonylphenyl)-N4-(4-cyanomethoxy-3-methoxyphenyl)-5-fluoro-2,4-pyrimidinediamine] are 834 nM and 17000 nM.
As to `COc1ccc(Nc2ncc(F)c(Nc3ccc(OCC#N)cc3)n2)cc1S(N)(=O)=O` [Compound I-56, N2-(3-Aminosulfonyl-4-methoxyphenyl)-N4-(4-cyanomethoxyphenyl)-5-fluoro-2,4-pyrimidinediamine], the half-maximal inhibitory concentration (IC50) came out at 262 nM in the assay with Primary human T-cells (setting [2]) and 4970 nM in assay [1] (setting [3]).
As for `Cc1cnc(Nc2cccc(S(N)(=O)=O)c2)nc1Nc1ccc(OCC#N)cc1` [Compound I-58, N2-(3-Aminosulfonylphenyl)-N4-(4-cyanomethoxyphenyl)-5-methyl-2,4-pyrimidinediamine], the IC50 in the assay with Primary human T-cells (setting [2]) was determined as 19.2 nM; in assay [1] (setting [3]) it was 730 nM.
The corresponding values for `Cc1ccc(Nc2ncc(C)c(Nc3ccc(OCC#N)cc3)n2)cc1S(N)(=O)=O` [Compound I-59, N2-(3-Aminosulfonyl-4-methylphenyl)-N4-(4-cyanomethoxyphenyl)-5-methyl-2,4-pyrimidinediamine] are 24.9 nM and 947 nM.
As for `NC(=O)COc1ccc(Nc2nc(Nc3ccc(S(N)(=O)=O)cc3)ncc2F)cc1Cl` [Compound I-97, N4-(4-Aminocarbonylmethoxy-3-chlorophenyl)-N2-(4-aminosulfonylphenyl)-5-fluoro-2,4-pyrimidinediamine], the IC50 in the assay with Primary human T-cells (setting [2]) was 869 nM; in assay [1] (setting [3]), 31100 nM.
In the same order, the values of `Cc1ccc(Nc2ncc(F)c(Nc3ccc(OCC(N)=O)c(F)c3)n2)cc1S(N)(=O)=O` [Compound I-102, N4-(4-Aminocarbonylmethoxy-3-fluorophenyl)-N2-(3-aminosulfonyl-4-methylphenyl)-5-fluoro-2,4-pyrimidinediamine] are 211 nM and 43800 nM.
In the same order, the values of `Cc1cnc(Nc2cccc(S(N)(=O)=O)c2)nc1Nc1ccc(OCC(N)=O)cc1` [Compound I-109, N4-(4-Aminocarbonylmethoxyphenyl)-N2-(3-aminosulfonylphenyl)-5-methyl-2,4-pyrimidinediamine] are 203 nM and 26000 nM.
As for `Cc1ccc(Nc2ncc(C)c(Nc3ccc(OCC(N)=O)cc3)n2)cc1S(N)(=O)=O` [Compound I-110, N4-(4-Aminocarbonylmethoxyphenyl)-N2-(3-aminosulfonyl-4-methylphenyl)-5-methyl-2,4-pyrimidinediamine], the IC50 was determined as 253 nM with Primary human T-cells (setting [2]) and 20600 nM in assay [1] (setting [3]).
With `Cc1cnc(Nc2cccc(S(N)(=O)=O)c2)nc1Nc1ccc(OCC(=O)N(C)C)c(Cl)c1` [Compound I-135, N2-(3-Aminosulfonylphenyl)-N4-(3-chloro-4-dimethylaminocarbonylmethoxyphenyl)-5-methyl-2,4-pyrimidinediamine], the IC50 in the assay on Primary human T-cells (setting [2]) came to 104 nM; in assay [1] (setting [3]) it was 3240 nM.
The corresponding values for `Cc1ccc(Nc2ncc(C)c(Nc3ccc(OCC(=O)N(C)C)c(Cl)c3)n2)cc1S(N)(=O)=O` [Compound I-136, N2-(3-Aminosulfonyl-4-methylphenyl)-N4-(3-chloro-4-dimethylaminocarbonylmethoxyphenyl)-5-methyl-2,4-pyrimidinediamine] are 196 nM and 8110 nM.
On to `Cc1cnc(Nc2cccc(S(N)(=O)=O)c2)nc1Nc1ccc(OCC(=O)N(C)C)c(F)c1` [Compound I-138, N2-(3-Aminosulfonylphenyl)-N4-(4-dimethylaminocarbonylmethoxy-3-fluorophenyl)-5-methyl-2,4-pyrimidinediamine], for which the IC50 was found to be 223 nM with Primary human T-cells (setting [2]) and 91500 nM in assay [1] (setting [3]).
For the molecule `Cc1ccc(Nc2ncc(C)c(Nc3ccc(OCC(=O)N(C)C)c(F)c3)n2)cc1S(N)(=O)=O` [Compound I-139, N2-(3-Aminosulfonyl-4-methylphenyl)-N4-(4-dimethylaminocarbonylmethoxy-3-fluorophenyl)-5-methyl-2,4-pyrimidinediamine], the figures for the IC50 (in the assay with Primary human T-cells (setting [2]); in assay [1] (setting [3])) were 240 nM and 11600 nM, respectively.
For the molecule `Cc1cnc(Nc2ccc(Cl)c(S(N)(=O)=O)c2)nc1Nc1ccc(OCC(=O)N(C)C)c(Cl)c1` [Compound I-141, N2-(3-Aminosulfonyl-4-chlorophenyl)-N4-(3-chloro-4-dimethylaminocarbonylmethoxyphenyl)-5-methyl-2,4-pyrimidinediamine], the IC50 is 669 nM with Primary human T-cells (setting [2]) and 15600 nM in assay [1] (setting [3]).
In the same order, the values of `Cc1ccc(Nc2nc(Nc3cccc(S(N)(=O)=O)c3)ncc2F)cc1OCCN1CCOCC1` [Compound I-203, N2-(3-Aminosulfonylphenyl)-5-fluoro-N4-[4-methyl-3-(2-morpholinoethyloxy)phenyl]-2,4-pyrimidinediamine] are 684 nM and 5770 nM.
In the same order, the values of `NS(=O)(=O)c1ccc(Nc2ncc(F)c(Nc3ccc(OCCN4CCOCC4)cc3)n2)cc1` [Compound I-205, N2-(4-Aminosulfonylphenyl)-5-fluoro-N4-[4-(2-morpholinoethyloxy)phenyl)-2,4-pyrimidinediamine] are 1860 nM and 9490 nM.
In the case of `Cc1cc(COc2ccc(Nc3nc(Nc4cccc(S(N)(=O)=O)c4)ncc3F)cc2)no1` [Compound I-230, N2-(3-Aminosulfonylphenyl)-5-fluoro-N4-[4-(5-methylisoxazol-3-yl)methyleneoxyphenyl]-2,4-pyrimidinediamine], the IC50 was 69.2 nM with Primary human T-cells (setting [2]) and 10500 nM in assay [1] (setting [3]).
In the same order, the values of `Cc1cc(COc2ccc(Nc3nc(Nc4cccc(S(=O)(=O)NCc5oc(=O)oc5C)c4)ncc3F)cc2)no1` [Compound I-247, N2-{3-[(N-5-Methyl-1,3-dioxolene-2-one-4-yl)methylene]aminosulfonylphenyl}-5-fluoro-N4-[4-(5-methylisoxazol-3-yl)methyleneoxyphenyl]-2,4-pyrimidinediamine] are 119 nM and 11100 nM.
As for `Cc1cc2ccc(CNc3nc(Nc4cccc(S(N)(=O)=O)c4)ncc3F)cc2[nH]1` [Compound X-3], the IC50 is 1090 nM in the assay on Primary human T-cells (Homo sapiens, T-cell, primary human T-cells stimulated with IL-2, proliferation) and 4980 nM in assay [1] (Homo sapiens, A549, A549 cells stimulated with IFNγ).
`Cc1ccc(Nc2ncc(F)c(Nc3ccc(Oc4cccnc4)cc3)n2)cc1S(N)(=O)=O` [II-12, N2-(3-Aminosulfonyl-4-methylphenyl)-5-fluoro-N4-[4-(3-pyridyloxy)phenyl]-2,4-pyrimidinediamine]: the concentration for half-maximal inhibition (IC50) is 409 nM in the assay with Primary human T-cells (setting [2]) and 5520 nM in assay [1] (setting [3]).
In the same order, the values of `Cc1cnc(Nc2ccc(Cl)c(S(N)(=O)=O)c2)nc1Nc1ccc(CCC#N)cc1` [III-12, N2-(3-Aminosulfonyl-4-chlorophenyl)-N4-[4-(2-cyanoethyl)phenyl]-5-methyl-2,4-pyrimidinediamine] are 107 nM and 3520 nM.
In the same order, the values of `Cc1cc(Nc2nc(Nc3ccc(C)c(S(N)(=O)=O)c3)ncc2F)ccc1CCC#N` [III-19, N2-(3-Aminosulfonyl-4-methylphenyl)-N4-[4-(2-cyanoethyl)-3-methylphenyl]-5-fluoro-2,4-pyrimidinediamine] are 174 nM and 21900 nM.
The corresponding values for `Cc1cc(Nc2nc(Nc3cccc(S(N)(=O)=O)c3)ncc2F)ccc1CCC#N` [III-20, N2-(3-Aminosulfonylphenyl)-N4-[4-(2-cyanoethyl)-3-methylphenyl]-5-fluoro-2,4-pyrimidinediamine] are 763 nM and 6640 nM.
As for `CN(C)C(=O)OCCc1ccc(Nc2nc(Nc3cccc(S(N)(=O)=O)c3)ncc2F)cc1` [III-57, N2-(3-Aminosulfonylphenyl)-N4-{4-[2-(dimethylaminocarbonyloxy)ethyl]phenyl}-5-fluoro-2,4-pyrimidinediamine], the results for the IC50 (in the assay with Primary human T-cells (setting [2]); in assay [1] (setting [3])) were 170 nM and 55500 nM, respectively.
For `CNC(=O)OCCc1ccc(Nc2nc(Nc3cccc(S(N)(=O)=O)c3)ncc2F)cc1` [III-60, N2-(3-Aminosulfonylphenyl)-5-fluoro-N4-{4-[2-(methylaminocarbonyloxy)ethyl]phenyl}-2,4-pyrimidinediamine], the IC50 in the assay with Primary human T-cells (setting [2]) was determined as 178 nM; in assay [1] (setting [3]), 25500 nM.
`NS(=O)(=O)c1ccc(Nc2ncc(F)c(Nc3ccc(Cc4ccncc4)cc3)n2)cc1` [III-71, N2-(4-Aminosulfonylphenyl)-5-fluoro-N4-[4-(4-pyridinylmethyl)phenyl]-2,4-pyrimidinediamine]: the IC50 in the assay with Primary human T-cells (setting [2]) was found to be 368 nM; in assay [1] (setting [3]), 8260 nM.
With `NS(=O)(=O)c1cccc(Nc2ncc(F)c(NCCc3ccc(-n4ccnc4)cc3)n2)c1` [III-87, N2-(3-Aminosulfonylphenyl)-5-fluoro-N4-[4-(1-imidazolyl)phenethyl]-2,4-pyrimidinediamine], the IC50 with Primary human T-cells (setting [2]) came to 142 nM; in assay [1] (setting [3]) it was 76200 nM.
